Data on 13 molecules can be found in US20090253709A1 (NATIONAL DEFENSE MEDICAL CENTER, priority 2008, published 2009).

The first assay concerns hTERT expression. Kind of assay: SEAP assay, H1299/PhTERT-driven SEAP system. It counts as cell-based, human. To be noted: Homo sapiens, NCI-H1299; H1299; compound concentration 1 μM; read-out: SEAP (Inhibition μM ± SD). An excerpt:
The condition of the cells for selecting the telomerase inhibitor must be the cancer cells with telomerase activity. H1299 is a non-small cell lung cancer cell line with telomerase activity. The hTERT communication gene linked behind PhTERT which is located at the fifth chromosome of H1299 cell can be expressed; however, this expression is hard to detect. Therefore, the plasmid having the SEAP communication gene linked behind PhTERT was transfected into H1299 cells. Under the identical condition, after PhTERT was activated, the SEAP communication gene linked behind the plasmid was also activated. This gene could be detected by this analytic method while expressing.
If additionally added reagent can inhibit PhTERT, the linked SEAP communication gene will not be expressed, and the hTERT communication gene linked behind PhTERT at the fifth chromosome will not be expressed. […]
The cellular medium after the cellular incubation was transferred into the eppondorf tube, and the activity of endogeneous alkaline phosphatase was inactivated at 65° C. for 10 minutes. After centrification, the mixture was obtained by mixing 50 μl of the supernatant with the equal volume of the SEAP buffer. The mixture and the substrate (120 mM of p-nitrophenylphosphate) were preheated at 37° C. for 10 minutes respectively, and the mixture and the substrate were mixed at a ratio of 1:10 and reacted at 37° C. The absorbance of visible light at 405 nm was determined at the appropriate time intervals, and the enzymatic activity of SEAP was represented by the speed of the increasing absorbance at 405 nm.
The selection of telomerase inhibitors of the anthraquinone compounds provided in the present invention was performed by the H1299/PhTERT-driven SEAP system. SEAP is the communication gene in this drug selection model. The SEAP inhibition was shown as follows. The quantitative cellular medium obtained after the 24-hour drug-treatment and the identical inactivation was reacted with the quantitative SEAP substrate, and the absorbance at 405 nm was detected for 5 time intervals. Subsequently, the linear slope of absorbance to the measuring time was calculated, and the variance of absorbance at 405 nm per minute was represented and compared with the SEAP-producing result of drug-untreated H1299 cells. In addition, the influence of the cell-treated drug solution to the cellular proliferation and the drug toxicity to the cells were considered, and the cellular growth was evaluated by the MTT assay. The drug-treated cells were analyzed by the SEAP assay and the data analysis of MTT assay at the same time. Both results were compared so as to delete the influence of cell number or the activity to SEAP, and the dose-dependent phenomenon could be anticipated in the range of drug concentration designed by the laboratory.
In the preliminary selection, the highest concentration was 1000 μM, and 10-fold serial dilutions were done. Therefore, the final concentrations for treating cells were 1 μM, 10 μM and 100 μM, and the drug concentrations were repeated for 5 times. Since the chemically-synthetic drugs have colors thereon, the SEAP value of drug-treatment without cells was also determined to be the background value which was deducted while treating with the drugs. The candidate drug for inhibiting telomerase on the hTERT gene expression level was evaluated and anticipated.
As for `O=C(CN1CCNCC1)Nc1ccc2c(c1)C(=O)c1cc(NC(=O)CN3CCNCC3)ccc1C2=O` [Compound 12, 2,7-Bis[2-(piperazino)acetamido]anthraquinone], the activity at 1 µM came out at 89 ± 17%.

Take `CC(C)CNCC(=O)Nc1ccc2c(c1)C(=O)c1cc(NC(=O)CNCC(C)C)ccc1C2=O` [Compound 14, 2,7-Bis[2-(isobutylamino)acetamido]anthraquinone]: the activity at 1 µM came out at 73 ± 20%.

On to `O=C(CCCl)Nc1ccc2c(c1)C(=O)c1cc(NC(=O)CCCl)ccc1C2=O` [Compound 15, 2,7-Bis(3-chloropropionamido)anthraquinone], for which the activity at 1 µM was found to be 94 ± 11%.

Regarding `CCCCNCCC(=O)Nc1ccc2c(c1)C(=O)c1cc(NC(=O)CCNCCCC)ccc1C2=O` [Compound 17, 2,7-Bis[3-(butylamino)propionamido]anthraquinone], the activity at 1 µM was 56 ± 14%.

Turning to `O=C(CCN1CCCCC1)Nc1ccc2c(c1)C(=O)c1cc(NC(=O)CCN3CCCCC3)ccc1C2=O` [Compound 19, 2,7-Bis[3-(piperidino)propionamido]anthraquinone], the activity at 1 µM turned out to be 55 ± 23%.

With `CCCNCCC(=O)Nc1ccc2c(c1)C(=O)c1cc(NC(=O)CCNCCC)ccc1C2=O` [Compound 21, 2,7-Bis[3-(propylamino)propionamido]anthraquinone], the activity at 1 µM is 52 ± 13%.

Turning to `CN1CCN(CCC(=O)Nc2ccc3c(c2)C(=O)c2cc(NC(=O)CCN4CCN(C)CC4)ccc2C3=O)CC1` [Compound 23, 2,7-Bis[3-(N-methylpiperazino)propionamido]anthraquinone], the activity at 1 µM turned out to be 75 ± 16%.

As to `O=C(CCN1CCNCC1)Nc1ccc2c(c1)C(=O)c1cc(NC(=O)CCN3CCNCC3)ccc1C2=O` [Compound 24, 2,7-Bis[3-(piperazino)propionamido]anthraquinone], the activity at 1 µM came to 75 ± 26%.

As for `O=C(CCCCl)Nc1ccc2c(c1)C(=O)c1cc(NC(=O)CCCCl)ccc1C2=O` [Compound 25, 2,7-Bis(4-chlorobutyramido)anthraquinone], the activity at 1 µM was 88 ± 19%.

For the molecule `CCC(=O)Nc1ccc2c(c1)C(=O)c1cc(NC(=O)CC)ccc1C2=O` [Compound 27, 2,7-Bis(propionamido)anthraquinone], the activity at 1 µM was found to be 90 ± 23%.

For `O=C(Cc1ccccc1)Nc1ccc2c(c1)C(=O)c1cc(NC(=O)Cc3ccccc3)ccc1C2=O` [Compound 30, 2,7-Bis(phenylacetamido)anthraquinone], the activity at 1 µM was 97 ± 18%.

With `O=C(CCc1ccccc1)Nc1ccc2c(c1)C(=O)c1cc(NC(=O)CCc3ccccc3)ccc1C2=O` [Compound 31, 2,7-Bis(phenylpropionamido)anthraquinone], the activity at 1 µM was determined as 89 ± 23%.

As for `O=C1c2ccc(NC(=O)C3CCCCC3)cc2C(=O)c2cc(NC(=O)C3CCCCC3)ccc21` [Compound 34, 2,7-Bis(cyclohexanecarbonamido)anthraquinone], the activity at 1 µM came to 96 ± 5%.

Staying with this assay, now noted: Homo sapiens, NCI-H1299; H1299; compound concentration 10 μM; read-out: SEAP (Inhibition μM ± SD).
For `O=C(CN1CCNCC1)Nc1ccc2c(c1)C(=O)c1cc(NC(=O)CN3CCNCC3)ccc1C2=O` [Compound 12, 2,7-Bis[2-(piperazino)acetamido]anthraquinone], the activity at 10 µM worked out at 72 ± 20%.

As for `CC(C)CNCC(=O)Nc1ccc2c(c1)C(=O)c1cc(NC(=O)CNCC(C)C)ccc1C2=O` [Compound 14, 2,7-Bis[2-(isobutylamino)acetamido]anthraquinone], the activity at 10 µM is 38 ± 15%.

On to `O=C(CCCl)Nc1ccc2c(c1)C(=O)c1cc(NC(=O)CCCl)ccc1C2=O` [Compound 15, 2,7-Bis(3-chloropropionamido)anthraquinone], for which the activity at 10 µM was 94 ± 7%.

With `CCCCNCCC(=O)Nc1ccc2c(c1)C(=O)c1cc(NC(=O)CCNCCCC)ccc1C2=O` [Compound 17, 2,7-Bis[3-(butylamino)propionamido]anthraquinone], the activity at 10 µM was determined as 33 ± 9%.

In the case of `O=C(CCN1CCCCC1)Nc1ccc2c(c1)C(=O)c1cc(NC(=O)CCN3CCCCC3)ccc1C2=O` [Compound 19, 2,7-Bis[3-(piperidino)propionamido]anthraquinone], the activity at 10 µM was determined as 33 ± 8%.

`CCCNCCC(=O)Nc1ccc2c(c1)C(=O)c1cc(NC(=O)CCNCCC)ccc1C2=O` [Compound 21, 2,7-Bis[3-(propylamino)propionamido]anthraquinone]: the activity at 10 µM came to 22 ± 14%.

With `CN1CCN(CCC(=O)Nc2ccc3c(c2)C(=O)c2cc(NC(=O)CCN4CCN(C)CC4)ccc2C3=O)CC1` [Compound 23, 2,7-Bis[3-(N-methylpiperazino)propionamido]anthraquinone], the activity at 10 µM turned out to be 52 ± 11%.

Regarding `O=C(CCN1CCNCC1)Nc1ccc2c(c1)C(=O)c1cc(NC(=O)CCN3CCNCC3)ccc1C2=O` [Compound 24, 2,7-Bis[3-(piperazino)propionamido]anthraquinone], the activity at 10 µM came to 71 ± 21%.

Regarding `O=C(CCCCl)Nc1ccc2c(c1)C(=O)c1cc(NC(=O)CCCCl)ccc1C2=O` [Compound 25, 2,7-Bis(4-chlorobutyramido)anthraquinone], the activity at 10 µM was 86 ± 13%.

On to `CCC(=O)Nc1ccc2c(c1)C(=O)c1cc(NC(=O)CC)ccc1C2=O` [Compound 27, 2,7-Bis(propionamido)anthraquinone], for which the activity at 10 µM was found to be 95 ± 14%.

Regarding `O=C(Cc1ccccc1)Nc1ccc2c(c1)C(=O)c1cc(NC(=O)Cc3ccccc3)ccc1C2=O` [Compound 30, 2,7-Bis(phenylacetamido)anthraquinone], the activity at 10 µM was 91 ± 21%.

Turning to `O=C(CCc1ccccc1)Nc1ccc2c(c1)C(=O)c1cc(NC(=O)CCc3ccccc3)ccc1C2=O` [Compound 31, 2,7-Bis(phenylpropionamido)anthraquinone], the activity at 10 µM worked out at 79 ± 8%.

Turning to `O=C1c2ccc(NC(=O)C3CCCCC3)cc2C(=O)c2cc(NC(=O)C3CCCCC3)ccc21` [Compound 34, 2,7-Bis(cyclohexanecarbonamido)anthraquinone], the activity at 10 µM turned out to be 93 ± 3%.

The same assay, now with this note: Homo sapiens, NCI-H1299; H1299; compound concentration 100 μM; read-out: SEAP (Inhibition μM ± SD).
Regarding `O=C(CN1CCNCC1)Nc1ccc2c(c1)C(=O)c1cc(NC(=O)CN3CCNCC3)ccc1C2=O` [Compound 12, 2,7-Bis[2-(piperazino)acetamido]anthraquinone], the activity at 100 µM is 60 ± 12%.

`CC(C)CNCC(=O)Nc1ccc2c(c1)C(=O)c1cc(NC(=O)CNCC(C)C)ccc1C2=O` [Compound 14, 2,7-Bis[2-(isobutylamino)acetamido]anthraquinone]: the activity at 100 µM was determined as 26 ± 10%.

Consider `O=C(CCCl)Nc1ccc2c(c1)C(=O)c1cc(NC(=O)CCCl)ccc1C2=O` [Compound 15, 2,7-Bis(3-chloropropionamido)anthraquinone], for which the activity at 100 µM is 87 ± 9%.

For the molecule `CCCCNCCC(=O)Nc1ccc2c(c1)C(=O)c1cc(NC(=O)CCNCCCC)ccc1C2=O` [Compound 17, 2,7-Bis[3-(butylamino)propionamido]anthraquinone], the activity at 100 µM came out at 22 ± 17%.

Regarding `O=C(CCN1CCCCC1)Nc1ccc2c(c1)C(=O)c1cc(NC(=O)CCN3CCCCC3)ccc1C2=O` [Compound 19, 2,7-Bis[3-(piperidino)propionamido]anthraquinone], the activity at 100 µM was 25 ± 10%.

`CCCNCCC(=O)Nc1ccc2c(c1)C(=O)c1cc(NC(=O)CCNCCC)ccc1C2=O` [Compound 21, 2,7-Bis[3-(propylamino)propionamido]anthraquinone]: the activity at 100 µM is 13 ± 15%.

Regarding `CN1CCN(CCC(=O)Nc2ccc3c(c2)C(=O)c2cc(NC(=O)CCN4CCN(C)CC4)ccc2C3=O)CC1` [Compound 23, 2,7-Bis[3-(N-methylpiperazino)propionamido]anthraquinone], the activity at 100 µM turned out to be 21 ± 10%.

For the molecule `O=C(CCN1CCNCC1)Nc1ccc2c(c1)C(=O)c1cc(NC(=O)CCN3CCNCC3)ccc1C2=O` [Compound 24, 2,7-Bis[3-(piperazino)propionamido]anthraquinone], the activity at 100 µM came to 71 ± 15%.

Regarding `O=C(CCCCl)Nc1ccc2c(c1)C(=O)c1cc(NC(=O)CCCCl)ccc1C2=O` [Compound 25, 2,7-Bis(4-chlorobutyramido)anthraquinone], the activity at 100 µM worked out at 78 ± 17%.

Regarding `CCC(=O)Nc1ccc2c(c1)C(=O)c1cc(NC(=O)CC)ccc1C2=O` [Compound 27, 2,7-Bis(propionamido)anthraquinone], the activity at 100 µM came out at 85 ± 16%.

In the case of `O=C(Cc1ccccc1)Nc1ccc2c(c1)C(=O)c1cc(NC(=O)Cc3ccccc3)ccc1C2=O` [Compound 30, 2,7-Bis(phenylacetamido)anthraquinone], the activity at 100 µM was 80 ± 17%.

Take `O=C(CCc1ccccc1)Nc1ccc2c(c1)C(=O)c1cc(NC(=O)CCc3ccccc3)ccc1C2=O` [Compound 31, 2,7-Bis(phenylpropionamido)anthraquinone]: the activity at 100 µM came to 61 ± 13%.

Take `O=C1c2ccc(NC(=O)C3CCCCC3)cc2C(=O)c2cc(NC(=O)C3CCCCC3)ccc21` [Compound 34, 2,7-Bis(cyclohexanecarbonamido)anthraquinone]: the activity at 100 µM amounted to 80 ± 2%.

Still in this assay, the particulars now being: low concentration (1 μM).
Take `O=C(Cc1ccccc1)Nc1ccc2c(c1)C(=O)c1cc(NC(=O)Cc3ccccc3)ccc1C2=O` [Compound 30, 2,7-Bis(phenylacetamido)anthraquinone]: the “SEAP (telomerase inhibition)” value came out at 70±6%.
